For the experiment, the system named is T1, polyphenol oxidase (PPO), crude PPO extract of Hass avocado pulp.
T1 construct: isoenzyme not identified
Nature of the experiment: absorbance at […] nm, Lineweaver-Burk. Type of experiment: biochemical, Persea americana. Particulars: phosphate buffer pH 7.0, catechol 2.7-44.5 mM, also printed as 0.1627 g/L, no inhibitor.

On to `Oc1ccccc1O` [catechol], for which the Km (as a rule, the substrate concentration at which the rate is half of its maximum) was determined as 1480 µM.

Source of the values: publication PMC11874750, “Inhibitory effect of fermented avocado seed extract (Persea americana Mill. cv. Hass) on polyphenol oxidase and its application as anti-browning agent in avocado, apple, and banana pulps” (Heliyon, 2025).
